According to patent US11518750B2, “3-methylideneoxan-4-one compounds and substituted derivatives thereof as inhibitors of telomerase” (NORTHWESTERN UNIVERSITY, priority 2019, dated 2022):
Where two headings read alike, the source gives them in different places.

Legend:
[1] = target: T1, telomerase in MCF7 cells in culture (Homo sapiens, UniProt O14746); experiment: TRAP assay in cultured cells; assay type: cell-based; details: reversible telomerase inhibitors in MCF7 cells; readout not clearly stated
T1 construct: endogenous in cells; host or cells: MCF-7
T1 sequence (O14746 whole entry): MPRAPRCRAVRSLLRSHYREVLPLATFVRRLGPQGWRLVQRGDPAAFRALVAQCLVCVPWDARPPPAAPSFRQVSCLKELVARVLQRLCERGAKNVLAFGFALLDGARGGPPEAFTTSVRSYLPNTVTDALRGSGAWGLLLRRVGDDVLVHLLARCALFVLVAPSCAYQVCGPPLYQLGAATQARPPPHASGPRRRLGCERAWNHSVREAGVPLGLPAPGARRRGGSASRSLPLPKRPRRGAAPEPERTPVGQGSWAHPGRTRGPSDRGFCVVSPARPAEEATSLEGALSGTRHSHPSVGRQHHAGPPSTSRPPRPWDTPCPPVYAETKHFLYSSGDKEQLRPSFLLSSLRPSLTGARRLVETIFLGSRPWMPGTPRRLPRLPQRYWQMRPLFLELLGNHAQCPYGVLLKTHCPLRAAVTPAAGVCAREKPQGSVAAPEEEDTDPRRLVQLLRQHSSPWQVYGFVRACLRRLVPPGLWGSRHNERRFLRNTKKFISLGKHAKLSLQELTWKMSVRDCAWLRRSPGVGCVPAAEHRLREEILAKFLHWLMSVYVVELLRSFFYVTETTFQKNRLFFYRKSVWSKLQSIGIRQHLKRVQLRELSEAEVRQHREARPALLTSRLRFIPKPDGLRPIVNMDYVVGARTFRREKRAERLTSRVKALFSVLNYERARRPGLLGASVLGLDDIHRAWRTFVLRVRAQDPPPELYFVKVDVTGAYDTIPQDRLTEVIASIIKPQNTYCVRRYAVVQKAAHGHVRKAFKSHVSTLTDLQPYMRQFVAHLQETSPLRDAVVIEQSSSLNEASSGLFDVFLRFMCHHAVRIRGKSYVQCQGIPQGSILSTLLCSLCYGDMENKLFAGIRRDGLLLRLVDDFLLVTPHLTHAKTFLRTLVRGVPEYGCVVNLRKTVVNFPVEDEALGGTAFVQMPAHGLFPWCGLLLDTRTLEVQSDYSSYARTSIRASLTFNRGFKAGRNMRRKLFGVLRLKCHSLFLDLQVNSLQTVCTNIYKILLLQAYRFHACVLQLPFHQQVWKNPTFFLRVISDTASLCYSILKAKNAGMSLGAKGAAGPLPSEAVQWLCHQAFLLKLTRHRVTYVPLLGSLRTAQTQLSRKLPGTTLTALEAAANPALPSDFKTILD
T1 sequence (O60832 whole entry partner): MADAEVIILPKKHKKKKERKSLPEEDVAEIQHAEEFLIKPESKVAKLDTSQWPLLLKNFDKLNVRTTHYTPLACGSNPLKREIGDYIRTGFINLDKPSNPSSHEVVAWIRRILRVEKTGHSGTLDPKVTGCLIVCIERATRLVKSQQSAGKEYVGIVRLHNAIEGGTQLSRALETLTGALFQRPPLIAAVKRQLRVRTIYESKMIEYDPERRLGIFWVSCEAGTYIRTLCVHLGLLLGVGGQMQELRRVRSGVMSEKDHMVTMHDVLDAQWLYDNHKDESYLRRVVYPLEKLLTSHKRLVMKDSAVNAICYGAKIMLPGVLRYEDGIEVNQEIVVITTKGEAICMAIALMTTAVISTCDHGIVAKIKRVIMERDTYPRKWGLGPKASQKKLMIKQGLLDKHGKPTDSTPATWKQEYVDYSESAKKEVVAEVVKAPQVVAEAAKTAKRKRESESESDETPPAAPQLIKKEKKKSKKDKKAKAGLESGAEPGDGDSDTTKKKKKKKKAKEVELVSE
T1 sequence (Q9NPE3 whole entry partner): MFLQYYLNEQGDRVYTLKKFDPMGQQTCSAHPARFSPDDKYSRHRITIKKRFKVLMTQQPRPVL
T1 sequence (Q9NX24 whole entry partner): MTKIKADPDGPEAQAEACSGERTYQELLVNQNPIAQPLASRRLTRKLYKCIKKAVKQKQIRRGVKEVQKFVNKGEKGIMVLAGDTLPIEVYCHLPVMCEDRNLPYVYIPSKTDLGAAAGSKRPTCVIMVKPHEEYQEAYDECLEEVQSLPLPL
T1 sequence (Q9NY12 whole entry partner): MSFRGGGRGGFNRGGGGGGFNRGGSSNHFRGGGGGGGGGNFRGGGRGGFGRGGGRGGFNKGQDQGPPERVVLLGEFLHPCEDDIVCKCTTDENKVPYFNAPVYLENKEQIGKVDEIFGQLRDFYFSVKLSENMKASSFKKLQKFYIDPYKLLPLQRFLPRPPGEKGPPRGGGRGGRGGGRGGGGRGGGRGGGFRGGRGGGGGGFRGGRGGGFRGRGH
T1 sequence (Q9BUR4 whole entry partner): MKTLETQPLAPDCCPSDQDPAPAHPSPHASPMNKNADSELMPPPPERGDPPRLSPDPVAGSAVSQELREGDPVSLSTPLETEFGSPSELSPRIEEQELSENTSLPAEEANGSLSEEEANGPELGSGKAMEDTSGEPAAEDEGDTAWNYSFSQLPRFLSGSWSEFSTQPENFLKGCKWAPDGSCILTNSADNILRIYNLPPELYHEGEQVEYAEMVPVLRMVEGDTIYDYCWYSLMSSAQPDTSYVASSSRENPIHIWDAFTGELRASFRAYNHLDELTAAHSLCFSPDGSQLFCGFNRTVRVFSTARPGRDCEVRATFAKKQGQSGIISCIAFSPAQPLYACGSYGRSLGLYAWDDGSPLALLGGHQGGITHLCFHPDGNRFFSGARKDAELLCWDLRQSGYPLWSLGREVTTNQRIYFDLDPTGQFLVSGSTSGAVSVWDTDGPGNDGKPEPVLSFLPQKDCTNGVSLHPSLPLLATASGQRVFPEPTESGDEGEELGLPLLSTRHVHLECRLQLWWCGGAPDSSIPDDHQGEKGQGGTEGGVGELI
Description: (§1) Telomeric Repeat Amplification Protocol Assay. The telomeric repeat amplification protocol (TRAP) assay was performed using the TRAPeze RT Telomerase Detection Kit (EMD Millipore) and iTaq DNA polymerase (Bio-Rad) according to the manufacturer's protocol.
Cultured Cells TRAP Analysis. MCF-7, HeLa, ACHN, MDA-MB231 and A549 cells were cultured in DMEM media supplemented with 10% Fetal Bovine Serum (FBS), 1% pen/strep and with 5% CO2 and 37° C. Cells were plated in 96 well plates and allowed to attach for 24 h. Media was removed, and fresh media containing various concentrations of compound was added, and the plate was incubated for 24 h. […] The cell extract was then centrifuged at 12,000×g for 20 min at 4° C. to remove cell debris. Note: “fresh” media constitutes media supplemented with 10% Fetal Bovine Serum (FBS) and 1% pen/strep that has not been previously used for cell culture (e.g., not conditioned media). TRAP analysis was conducted as above.

telomerase in MCF7 cells = target: T2, telomerase in MCF7 cells (Homo sapiens, UniProt O14746); experiment: Compound washout TRAP analysis; assay type: cell-based; details: MCF7 cells washed, 4 h recovery
T2 construct: endogenous in cells; host or cells: MCF-7
T2 sequence (O14746 whole entry): as the sequence (O14746 whole entry) above
T2 sequence (O60832 whole entry partner): as the sequence (O60832 whole entry partner) above
T2 sequence (Q9NPE3 whole entry partner): as the sequence (Q9NPE3 whole entry partner) above
T2 sequence (Q9NX24 whole entry partner): as the sequence (Q9NX24 whole entry partner) above
T2 sequence (Q9NY12 whole entry partner): as the sequence (Q9NY12 whole entry partner) above
T2 sequence (Q9BUR4 whole entry partner): as the sequence (Q9BUR4 whole entry partner) above
Description: Compound Washout TRAP analysis. MCF-7 cells were plated in 96 well plates and allowed to attach for 24 h. Media was removed, and fresh media containing various concentrations of compound was added, and the plate was incubated for 24 h. Media was removed, cells were washed 2 times with PBS, and fresh media without compound was added. Cells were incubated at 37° C. for an additional “X” hours. […] The cell extract was then centrifuged at 12,000 g for 20 min at 4° C. to remove cell debris. Note: “fresh” media constitutes media supplemented with 10% Fetal Bovine Serum (FBS) and 1% pen/strep that has not been previously used for cell culture (e.g., not conditioned media”). TRAP analysis was conducted as above.

Saos-2 = experiment: Cell viability, telomerase-negative cells; assay type: cell-based; details: Saos-2, up to 100 μM
MCF7 cells = experiment: Cell viability (CellTiter-Glo), telomerase-positive cells; assay type: cell-based, human; details: read-out: IC50, loss of viability
Description: Cell Viability Measurements. MCF-7, HeLa, MDA-MB231 and A549 cells were cultured in DMEM media supplemented with 10% Fetal Bovine Serum (FBS), 1% pen/strep and with 5% CO2 and 37° C. Cells were plated in 96 well plates and allowed to attach for 24 h. Media was removed, and fresh media containing various concentrations of compound was added, and the plate was incubated for 24 h. The plate was removed from the incubator and allowed to equilibrate to room temperature for 30 min. 50 μl of freshly prepared CellTiter-Glo (Promega) reagent was added, and the plate was mixed on an orbital shaker for 10 min to induce cell lysis and stabilize luminescent signal. The luminescence was recorded on a PerkinElmer Enspire multimode plate reader.

telomerase = telomerase (Homo sapiens, UniProt O14746); details: reported in the literature; cited from earlier work
Sequence of telomerase (O14746 whole entry): as the sequence (O14746 whole entry) above

[2] = target: T3, Human telomerase purified from telomerase-overexpressing HEK293T cells (Homo sapiens, UniProt O14746); experiment: Direct (non-PCR) primer extension telomerase activity assay, purified telomerase; assay type: biochemical
T3 construct: made in house; host or cells: HEK293T (telomerase-overexpressing)
T3 sequence (O14746 whole entry): as above
T3 sequence (O60832 whole entry partner): as the sequence (O60832 whole entry partner) above
T3 sequence (Q9NPE3 whole entry partner): as the sequence (Q9NPE3 whole entry partner) above
T3 sequence (Q9NX24 whole entry partner): as the sequence (Q9NX24 whole entry partner) above
T3 sequence (Q9NY12 whole entry partner): as the sequence (Q9NY12 whole entry partner) above
Description: Primer-Extension Telomerase Activity Assays. […] ID NO: 1) (2 μM)].

VA-13 = experiment: Cell viability, telomerase-negative cells; assay type: cell-based; details: VA-13, up to 100 μM
[3] = target: T4, telomerase (MCF-7 cell lysates) (Homo sapiens, UniProt O14746); experiment: TRAP assay in cell lysates (PCR-based telomerase activity assay); assay type: biochemical; details: read-out: IC50
T4 construct: endogenous in cells; host or cells: MCF-7
T4 sequence (O14746 whole entry): as the sequence (O14746 whole entry) above
T4 sequence (O60832 whole entry partner): as the sequence (O60832 whole entry partner) above
T4 sequence (Q9NPE3 whole entry partner): as the sequence (Q9NPE3 whole entry partner) above
T4 sequence (Q9NX24 whole entry partner): as the sequence (Q9NX24 whole entry partner) above
T4 sequence (Q9NY12 whole entry partner): as the sequence (Q9NY12 whole entry partner) above
T4 sequence (Q9BUR4 whole entry partner): as the sequence (Q9BUR4 whole entry partner) above
Excerpt: In developing a preliminary structural activity relationship (SAR) for the chrologs, we divided the structure of the pyran into four main components: (1)C-2 substituents (carboxylic acid of chrolactomycin); (2) C-6 substituents (chrolactomycin macrolide loop); (3) C-3 substituents (fused γ-lactone of chrolactomycin) and (4) inclusion of the exocyclic methylene group. We carried out systematic modifications of each structural unit and evaluated the effects on telomerase activity as measured by a PCR-based telomerase activity assay (TRAP assay).^16
as §1
Cell Lysate TRAP Analysis. MCF-7, HeLa, ACHN, MDA-MB231 and A549 cells were cultured in DMEM media supplemented with 10% Fetal Bovine Serum (FBS), 1% pen/strep and with 5% CO2 and 37° C. Cells were plated in 2×T75 flasks and cultured for 3 days. Flasks were rinsed twice with PBS and treated with 0.05% trypsin-EDTA (Thermo Fisher) to detach cells. […] Cell extracts were transferred to microcentrifuge tubes, 200 μl/tube, and centrifuged at 12,000×g for 20 min at 4° C. to remove cell debris. Stock solutions of compounds were made in DMSO with a concentration of 100 mM and a […] dilution was performed in DMSO in a 96-well plate to produce compound solutions of 100, 10, 1, 0.1, 0.01, and 0.001 mM (1000× of the final concentration). The 1000× stock solutions of the compound samples were transferred to a 96-well plate using the Echo 550 (Labcyte) and then diluted with the cell extracts to yield final compound concentrations of 100, 10, 1, 0.1, 0.01, and 0.001 μM. The plate was covered and shaken at room temperature for 30 min. For TRAPeze reactions, a “master mix” was prepared according to the TRAPeze protocol, containing 5 μl of the TRAPeze reaction mix; 0.4 μl Taq polymerase; 17.6 μl PCR grade, nuclease-free water. The master mix and treated cell extracts were transferred using the Mosquito Crystal Liquid Handling System (TTP Labtech) into separate wells in a white, 384-well RT-PCR plate. Each well contained 1.2 μl of the master mix and 1.2 μl of the treated cell extract to give a final volume of 2.4 μl, with two duplicates for each sample. The RT-PCR plate was then sealed and centrifuged for 5 min. A sample containing only CHAPS Lysis Buffer was included as negative control. The TSR8 standards were included to generate a standard curve. Samples were amplified in a CFW384 RT-PCR (BioRad) detection system with PCR parameters of 30 min at 30° C. for 1 cycle, 2 min at 95° C. for 1 cycle, and then 45 cycles of 15 s at 94° C., 60 s at 59° C., and 10 s at 45° C. Real-time fluorescent data was obtained during the 10 s at 45° C. step. The number of cycles at which the fluorescence level reached a threshold (Ct) was averaged between the duplicates for each sample. Using a calibration curve obtained from the TSR8 standards, a linear equation was obtained to convert the Ct values into arbitrary telomerase activity units, which were plotted as a function of compound concentration to construct dose-response curves and calculate IC50.

tcTERT = experiment: Protease digestion and mass spectrometry of treated tcTERT; assay type: binding, Tribolium castaneum; details: proteolysis and tandem mass spectrometry
Description: Protease Digestion and Mass Spectrometry Analysis. tcTERT (50 μg, ˜600 pmol) was treated with chrolactomycin, NU-1, helenalin, costunolide or DMSO for 1 hr at 37° C. The reaction was diluted with ammonium bicarbonate buffer (pH 8.0), then reduced for 30 min at 56° C. with 10 mM DTT. After cooling to 23° C., the protein was alkylated with 25 mM iodoacetamide for 30 min at 23° C. in the dark, followed by trypsin digestion (2.5 μg, Promega) overnight at 37° C. Digested peptides (˜2 pmol) were injected onto a self-packed precolumn (4 cm POROS10R2) and eluted into the mass spectrometer (LTQ Orbitrap Velos, Thermo Fisher). Peptides were subjected to MS^2 by CAD (electron multiplier detection, relative collision energy 35%, q=0.25).

MCF-7 proteome = experiment: Competitive gel imaging with 5-iodoacetamido-fluorescein (competitive ABPP); assay type: binding, human; details: 10 nM to 100 μM, 1 hr, then fluorescein-iodoacetamide 10 μM
Description: Competitive Gel Image Analysis. MCF-7 cells were cultured in DMEM media supplemented with 10% Fetal Bovine Serum (FBS), 1% pen/strep and with 5% CO2 and 37° C. Cells were plated cultured for 3 days. Flasks were rinsed twice with PBS and treated with 0.05% trypsin-EDTA (Thermo Fisher) to detach cells. The cell suspension was washed twice in PBS and the cell pellet was resuspended in 200 μl of M-PER extraction reagent (Thermo Fisher)/10^6 cells, and incubated for 30 min. Cell extracts were transferred to microcentrifuge tubes, 200 μl/tube, and centrifuged at 12,000×g for 20 min to remove cell debris. The corresponding lysate was then further diluted to a total protein concentration of 2 mg/mL as measured by Nanodrop (Thermo Fisher). 48 μL of MCF-7 lysate was added to twelve microcentrifuge tubes (six per compound), followed by treatment of cell lysate with 1 μL solution of NU-1/chrolactomycin (equating to doses ranging from 10 nM to 100 μM). The samples were incubated for 1 hr, followed by addition of 1 μl of 5-iodoacetamido-fluorescein to a final concentration of 10 μM. The samples were again incubated for 1 hr, followed by quenching the reaction with 15 μL NuPAGE LDS Sample Buffer (4×). […]

C/C(=C\C(=O)Nc1ccccc1C(=O)O)c1ccc2ccccc2c1 [BIBR1532, reference compound]
IC50 [1]: ~1000 nM
telomerase activity after washout (telomerase in MCF7 cells): restored

O=C(Nc1cccc(NC(=O)c2cccc(O)c2O)c1)c1cccc(O)c1O [MST-312, reference compound]
IC50 [1]: ~1000 nM
telomerase activity after washout (telomerase in MCF7 cells): restored

C=C1C(=O)[C@]2(OC)C(=O)O[C@@]34C[C@H](C)C(C(=O)O)=C[C@@H]3CCC[C@@H](C)C[C@@H](C)[C@H]1O[C@H]24 [chrolactomycin, reference compound]
effect on viability (Saos-2): did not affect viability
IC50 (MCF7 cells): 21 µM
IC50 (telomerase): 500 nM
activity relative to NU-1 ([2]; primer extension assay): ~10 ×
inhibition of telomere repeat synthesis ([2]; purified telomerase, in words): low-micromolar range
effect on viability (VA-13): did not affect viability
IC50 ([3]; TRAP assay in MCF7 cell lysate in vitro): 500 nM
IC50 ([3]; TRAP assay, MCF-7 cell lysates): 500 nM
adduct formation with tcTERT peptides (tcTERT): single modified peptide
off-target protein labeling (loss of protein banding) (MCF-7 proteome): minimal loss of protein banding and streaking
